No end group written: not given here. Far = not defined here
Key:
[1] = test system: S. pombe h90 strains (mating and sporulation); assay: Frequency of zygote formation (microscopy-based mating frequency); format: cell-based, Schizosaccharomyces pombe
Protocol: Cells were pre-cultured on YEA medium at 30 °C overnight, washed with 1 mL sterilized water (10,000 rpm, 3 min, 4 °C), and adjusted to an OD600 of 5.0. Aliquots (30 µL) were spotted on YEA, MEA, SSA, or fruit/vegetable juice media (grape, orange, apple, vegetable) and incubated at 30 °C for 48 h. After 48 h, cells were harvested and examined using a differential interference contrast microscopy (BX53, Olympus, Tokyo, Japan) with the UPlanSApo 60×/1.35 NA oil-immersion objective, ORCA-spark camera (Hamamatsu Photonics, Hamamatsu, Japan), and CellSens software. Nine random fields were imaged per plate. Mating rates were calculated as in Seike et al.[11] using the equation: Mating rate(%)=2Z+2A+0.5S×100/V+2Z+2A+0.5S where V, Z, A, and S represent vegetative cells, zygotes, asci, and spores, respectively. Data are reported as the mean ±s.d.
All statistical analyses treated biological replicates (n = 3) as the unit of replication. Unless stated otherwise, values are reported as mean ± s.d., tests were two-sided, and no data were excluded. For two-group comparisons we used Welch’s t test (unequal variances). Significance in figures is denoted as p < 0.05, p < 0.01, and p < 0.001. […] For microscopy-based mating assays, nine random fields were scored per plate; field values were averaged within each biological replicate to avoid pseudoreplication. […] Analyses were performed in Python (pandas, numpy, math); plots were generated using matplotlib and seaborn.

[2] = molecular target: T1, M-factor receptor Map3 (Schizosaccharomyces pombe, UniProt P31397); assay: In vitro M-factor activity assay using a map4 promoter–lacZ fusion (β-galactosidase); format: cell-based; conditions: synthetic peptide 10 µM, map4-lacZ reporter strain, nitrogen-free SSL medium, pH 5.5 or 7.0
T1 construct: Tester strain TS472 was inoculated into 5 mL SSL + N medium; endogenous in cells; host or cells: S. pombe tester strain TS472 (map4 promoter-lacZ reporter)
T1 sequence (P31397 1-365): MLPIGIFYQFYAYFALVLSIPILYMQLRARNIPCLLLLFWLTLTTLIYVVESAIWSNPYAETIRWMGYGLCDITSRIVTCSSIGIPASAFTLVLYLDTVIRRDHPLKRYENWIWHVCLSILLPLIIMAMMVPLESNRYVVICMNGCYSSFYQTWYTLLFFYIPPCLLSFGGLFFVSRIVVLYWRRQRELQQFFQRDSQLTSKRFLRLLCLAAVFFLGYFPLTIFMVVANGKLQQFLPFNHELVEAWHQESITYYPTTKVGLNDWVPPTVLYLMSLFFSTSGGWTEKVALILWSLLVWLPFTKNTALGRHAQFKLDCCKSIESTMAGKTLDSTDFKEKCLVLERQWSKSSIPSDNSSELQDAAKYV
Protocol: β-galactosidase activity was measured to evaluate activation of the M-factor receptor Map3 using synthetic M-factor peptides, following a previously described method[22]. Tester strain TS472 was inoculated into 5 mL SSL + N medium (SSA without agar) at an initial OD600 of 0.1 and cultured at 30 °C for 20 h. Cells were washed three times with SSL–N medium (lacking 0.5 g/L aspartic acid) and resuspended in SSL–N at varying pH values (adjusted with HCl or NaOH) to OD600 = 2.0.
Thereafter, cells were washed and resuspended in Z-buffer (60 mM Na2HPO4, 40 mM NaH2PO4, 10 mM KCl, 1 mM MgSO4·7H2O, and 50 mM β-mercaptoethanol; pH 7.0) to OD600 = 5.0. For each replicate (n = 3), 200 µL of cell suspension was mixed with 600 µL Z-buffer, 15 µL chloroform, and 12 µL 0.1% SDS, vortexed, and incubated at 30 °C for 5 min. Reactions were initiated with 160 µL o-nitrophenyl-β-D-galactopyranoside (ONPG; 4 mg/mL in Z-buffer), and both start and end times were recorded. After incubation at 30 °C, reactions were terminated with 400 µL 1 M Na2CO3, centrifuged (13,000 rpm, 3 min, 4 °C), and 200 µL supernatant was diluted into 1 mL 0.33 M Na2CO3. Absorbance at 420 nm (OD420) was measured to calculate Miller units. Miller units=(OD420×1000)/(V×t×OD600) where V is reaction volume (mL) and t is reaction time (minute). Data are reported as the mean ± s.d. […]

Substance	Mating competence at pH 5.5 ([1]; SSA pH 5.5, 48 h)	Cells forming mature asci ([1]; SSA pH 7.5–8.5, 48 h)	Effect on mating in background with intact mfm2+ and mfm3+ genes ([1]; mfm1-P36H in h90 mfm2+ mfm3+ background, SSA pH 5.5 and pH 7.0)	pH dependence of β-galactosidase activity (Map3 activation) [2]
P6H: M-factor single-amino acid variant; also tested as synthetic peptide (Eurofins) (YTPKVHYMC(Far)-OMe; ends and bridges not checked; UniProt P34068 31-39, looked up, variant P36H)	virtually sterile	approximately 50%	does not exert a dominant-negative effect on mating	
T2Q: M-factor single-amino acid variant; also tested as synthetic peptide (Eurofins) (YQPKVPYMC(Far)-OMe; ends and bridges not checked; UniProt P34068 31-39, looked up, variant T32Q)				higher activity at acidic pH

Reference: publication PMC13099959, “Context-dependent activation and evolutionary buffering of a mating pheromone in fission yeast” (Communications Biology, 2026)
